Assays:
HepG2 cells = assay: MTS cell viability assay, HepG2 cells; assay type: cell-based, Human; conditions: 48 hours
Procedure: (§1) Human hepatocellular cancer cell lines, HepG2 (HB-8065, ATCC), Hep3B (HB-8064, ATCC) and HUVEC (CRL-1730) cells are cultured in a growth medium (2 mM L-glutamine, 100 U/ml penicillin, 100 µg/ml streptomycin) of Dulbecco's modified Eagle's medium (DMEM) containing 10% heat inactivated FBS in a humidified atmosphere at 37° C. with 5% CO2. Cells are passaged at 3-day intervals.
(§2) (NaB: B5H10NaO13), Curcumin (Sigma, C1386), and Piperine (Sigma, P49007). At the end of 24, 48 and 72 hours, cell viability were measured. Cell viability assay was performed by 3-(4,5-di-methyl-thiazol-2-yl)-5-(3-carboxy-methoxy-phenyl)-2-(4-sulfo-phenyl)-2H-tetrazolium (MTS) method (CellTiter96 AqueousOne Solution; Promega, Southampton, UK) following the manufacturer's protocol. After 2 hours of incubation time, the cell viability assay is conducted by measuring at 490 nm using an ELISA microplate reader (Bio-tek ELx800, USA). IC50 value for 48 hours was calculated.
(§3) The combination index (CI) is used to determine the degree of drug interaction. The concentration of inhibition in the combination is the sum of the ratio of the dose of each drug to the dose of each drug used alone. […] The formalization is as follows:
(§4) [formula] • (Dx)1, (Dx)2: Individual IC50 values of the substances • (D)1, (D)2: Concentrations of substances in the combination

Hep3B cells [1] = assay: MTS cell viability assay, Hep3B cells; assay type: cell-based, Human; conditions: 48 hours
Procedure: as §1, §2, §3, §4

Hep3B cells [2] = conditions: literature study [20]; cited from earlier work

COc1cc(/C=C/C(=O)CC(=O)/C=C/c2ccc(O)c(OC)c2)ccc1O [curcumin]
IC50 (HepG2 cells; Homo sapiens): 44.8 µM
IC50 (Hep3B cells [1]; Homo sapiens): 41.4 µM

O=C(/C=C/C=C/c1ccc2c(c1)OCO2)N1CCCCC1 [piperine]
IC50 (HepG2 cells; Homo sapiens): > 150 µM
IC50 (Hep3B cells [1]; Homo sapiens): > 150 µM

sodium pentaborate pentahydrate
proliferation of Hep3B cells (Hep3B cells [2]): decreased the proliferation of Hep3B cells
IC50 (HepG2 cells): 7660 µM
IC50 (Hep3B cells [1]): 6560 µM

— patent US20250228890A1, “ANTI-CANCER FORMULATION COMPRISING SODIUM PENTABORATE, CURCUMIN AND PIPERINE FOR USE IN THE TREATMENT OF HEPATOCELLULAR CARCINOMA” (Yeditepe Universitesi, priority 2022, published 2025)
